Experiments:
[1] = test system: asexual blood stage P. falciparum W2 (multidrug resistant); set-up: method as in Coertzen et al., 2018; Wong et al., 2019; conditions: ref Coertzen et al., 2018, Wong et al., 2019, cited from earlier work; for IC50: asexual blood stage, SYBR Green I, mean ± SEM
[2] = test system: LO2 human normal hepatocytes; assay: MTT cytotoxicity assay LO2; assay type: cell-based; conditions: Hepatocyte, MTT, 72 h, ± SD, read-out: IC50 LO2
Experimental: (§1) Proliferative and non-proliferative mammalian cell lines: human liver and lung cancer cell lines HepG2 and A549, and immortalized normal liver LO2 and lung BEAS-2B cells were purchased from ATCC (Manassas, VA, United States). Cells were cultured in RPMI-1640 medium supplemented with 10% fetal bovine serum and antibiotics penicillin (50 U/mL) and streptomycin (50 μg/ml; Invitrogen, United Kingdom). All cells were incubated at 37°C in a 5% humidified CO2 incubator.
(§2) All test compounds were dissolved in DMSO at a final concentration of 50 mM and stored at −20°C before use. Cytotoxicity was assessed with A549, HepG2, BEAS-2B and LO2 cells. The MTT assay with 3-(4,5-dimethylthiazole-2yl)-2,5-diphenyltetrazolium bromide (5 mg/ml) was performed as previously described ([Ng et al., 2022]). Briefly, 4 × 10^3 cells per well were seeded in 96-well plates before drug treatment. After overnight cell culture, the cells were exposed to different concentrations of selected compounds (0.19–100 μM) for 72 h. Cells without drug treatment were used as control. Next, 10 μl of the MTT solution was added to each well and incubated at 37°C for another 4 h. Solubilization buffer (100 μl) was then added (10 mM HCl in a solution of 10% of SDS) and incubated overnight. The absorbance A at 570 nm was measured on the next day. The percentage of cell viability was calculated using the following formula: Cell viability (%) = Atreated/Acontrol × 100. Dose response curves for all assays are given in the Supplementary Figures S3–S6.
(§3) Cytotoxicity was assessed for each of artemisinin, DHA and artemether, and the amino-artemisinins artemiside and artemisone, and celastrol against A549 human lung carcinoma, BEAS-2B non-tumorigenic human bronchial epithelium, HepG2 liver hepatocellular carcinoma and LO2 human normal hepatocytes using the MTT assay ([Ng et al., 2022]). Data are presented in Table 4, and dose response curves are given in the Supplementary Figures S3–S6.

[3] = test system: immature stage II-III P. falciparum NF54 gametocytes; set-up: method as in Coertzen et al., 2018, Wong et al., 2019; conditions: ref Coertzen et al., 2018, Wong et al., 2019, cited from earlier work; for IC50: NF54 gametocytes, luciferase, 48 h, mean ± SEM, read-out: Immature stage II-III (luc 48 h) IC50; for Fold change preference ratio EG to LG: immature vs late stage gametocytes
[4] = test system: asexual blood stage P. falciparum NF54 (drug sensitive); set-up: method as in Coertzen et al., 2018; Wong et al., 2019; conditions: SYBR Green I, mean ± SEM, ref Coertzen et al., 2018, Wong et al., 2019; cited from earlier work
[5] = test system: asexual blood stage P. falciparum K1 (multidrug resistant); conditions: ref Coertzen et al., 2018, Wong et al., 2019, cited from earlier work; for IC50: asexual blood stage, SYBR Green I, mean ± SEM
[6] = test system: late stage IV-V P. falciparum NF54 gametocytes; set-up: method as in Coertzen et al., 2018, Wong et al., 2019; conditions: ref Coertzen et al., 2018, Wong et al., 2019, cited from earlier work; for IC50: NF54 gametocytes, luciferase, 72 h, mean ± SEM, read-out: Late stage IV-V (luc 72 h) IC50; for Fold change preference ratio LG to EG: late vs immature stage gametocytes
[7] = test system: HepG2 liver hepatocellular carcinoma; assay: MTT cytotoxicity assay HepG2; assay type: cell-based, human; conditions: for IC50: Homo sapiens, HepG2, MTT, 72 h, ± SD, read-out: IC50 HepG2; for SI, selectivity index IC50 normal cell line/IC50 tumour cell line: LO2/HepG2
Experimental: as §1, §2, §3

[8] = test system: BEAS-2B non-tumorigenic human bronchial epithelium; assay: MTT cytotoxicity assay BEAS-2B; assay type: cell-based; conditions: MTT, 72 h, ± SD, read-out: IC50 BEAS-2B
Experimental: as §1, §2, §3

[9] = test system: A549 human lung carcinoma; assay: MTT cytotoxicity assay A549; assay type: cell-based; conditions: for IC50: Homo sapiens, A549, MTT, 72 h, ± SD, read-out: IC50 A549
Experimental: as §1, §2, §3

[10] = test system: HepG2 liver hepatocellular carcinoma; assay: Cytotoxicity drug combination (isobole) assay HepG2; assay type: cell-based, human
Experimental: (§4) For the drug combination inhibitory assays, six drug preparations, of which four comprised combinations of either artemiside or artemisone with celastrol in a fixed ratio of 80:20, 60:40, 40:60, and 20:80 were prepared and screened against HepG2 liver hepatocellular carcinoma and LO2 human normal hepatocytes respectively. Two of these six preparations employed each of artemiside, artemisone or celastrol alone at a concentration approximately 5–7 times higher than the IC50 of the individual drug as presented in Table 4. […] Thus, six combinations for artemiside (µM) and celastrol (µM) prepared were 500:0, 400:4, 300:8, 200:12, 100:16, and 0:20, respectively.
(§5) As above for the malaria combination assays, a mean ΣFIC<1.0 represents a synergistic interaction, >1.3 represents an antagonistic interaction and ΣFIC = 1 represents an indifferent or additive interaction. Additivity, synergism and antagonism were also be established from the linear plots constructed from the FIC values of each of the drugs. A concave hyperbolic plot indicates synergism, a convex hyperbolic plot indicates an antagonistic interaction, and a straight line indicates an additive interaction. Isobole analysis of the combinations of each of artemiside and artemisone in combination with celastrol was performed against HepG2 and LO2 cells respectively. In Figure 5 is presented the isoboles for each drug combination.
(§6) Next, combinations of each of artemiside and artemisone with celastrol were examined, according to the method used to establish additivity/synergism described above. […] Against the normal hepatocyte LO2 cell line, whilst the interaction of artemisone with celastrol was synergistic, that of artemiside was additive. Synergism and additivity were also evident from the linear plots determined from the FIC values of each of the drugs (Table 5 and Figure 6). Thus, synergism is confirmed for combinations of the amino-artemisinins with celastrol against the HepG2 carcinoma cell line, and for artemisone-celastrol against human normal hepatocyte LO2.

[11] = test system: LO2 human normal hepatocytes; assay: Cytotoxicity drug combination (isobole) assay LO2; assay type: cell-based
Experimental: as §4, §5, §6

SMILES | IC50 [1] [µM] | RI = IC50 W2/IC50 NF54 [1] | IC50 [2] [µM] | IC50 [3] [µM] | Fold change preference ratio EG to LG [3] | IC50 [4] [µM] | IC50 [5] [µM] | RI (resistance index) = IC50 K1/IC50 NF54 [5] | IC50 [6] [µM] | Fold change preference ratio LG to EG [6] | IC50 [7] [µM] | SI, selectivity index IC50 normal cell line/IC50 tumour cell line [7] | IC50 [8] [µM] | IC50 [9] [µM] | further results
CO[C@H]1O[C@@H]2O[C@@]3(C)CC[C@H]4[C@H](C)CC[C@@H]([C@H]1C)[C@@]24OO3 [Artemether, artemether] | 0.007 ± 0.001 | 3.8 | > 100 | 0.0377 ± 0.002 | 3.6 | 0.00186 ± 0.00017 | 0.009 ± 0.002 | 4.8 | 0.136 ± 0.0859 | 0.28 | 1.02 ± 0.2 | >98 | > 100 | > 100 | 
C[C@H]1[C@H](N2CCSCC2)O[C@@H]2O[C@@]3(C)CC[C@H]4[C@H](C)CC[C@@H]1[C@@]24OO3 [Artemiside, artemiside] | 0.00175 ± 0.00027 | 1.58 | > 100 | 0.0164 ± 0.001 | 0.09 | 0.00111 ± 0.00017 | 0.0016 ± 0.0004 | 1.47 | 0.0015 ± 0.0005 | 10.9 | 0.55 ± 0.02 | >183 | 32.1 ± 2.7 | > 100 | FIC ([10]; artemiside:celastrol drug ratio 20:80, HepG2): 0.16; FIC ([10]; artemiside:celastrol drug ratio 40:60, HepG2): 0.42; FIC ([10]; artemiside:celastrol drug ratio 60:40, HepG2): 0.4; FIC ([10]; artemiside:celastrol drug ratio 80:20, HepG2): 0.57; FIC ([11]; artemiside:celastrol drug ratio 20:80, LO2): 0.09; FIC ([11]; artemiside:celastrol drug ratio 40:60, LO2): 0.33; FIC ([11]; artemiside:celastrol drug ratio 60:40, LO2): 0.45; FIC ([11]; artemiside:celastrol drug ratio 80:20, LO2): 0.59; SI, selectivity index IC50 normal cell line/IC50 tumour cell line ([7]; listed as artemiside): > 170; SI, selectivity index IC50 normal cell line/IC50 tumour cell line ([9]; BEAS-2B/A549): <0.3
C[C@@H]1CC[C@H]2[C@@H](C)C(=O)O[C@@H]3O[C@@]4(C)CC[C@@H]1[C@]32OO4 [Artemisinin, artemisinin, reference compound] |  |  | > 100 |  |  |  |  |  |  |  | > 100 |  | > 100 | > 100 | 
C[C@H]1[C@H](OC(=O)CCC(=O)O)O[C@@H]2O[C@@]3(C)CC[C@H]4[C@H](C)CC[C@@H]1[C@@]24OO3 [Artesunate, artesunate] | 0.0024 ± 0.0004 |  |  | 0.0628 ± 0.003 |  | 0.003 ± 0.00029 | 0.004 ± 0.001 |  | 0.259 ± 0.08 |  |  |  |  |  | 
C[C@@H]1CC[C@H]2[C@@H](C)C(O)O[C@@H]3O[C@@]4(C)CC[C@@H]1[C@]32OO4 (stereo partly drawn) [DHA] | 0.00174 ± 0.00022 | 0.7 | 30.7 ± 2.2 | 0.043 ± 0.0039 | 0.78 | 0.00251 ± 0.00019 | 0.00151 ± 0.00033 | 0.6 | 0.0337 ± 0.00198 | 1.3 | > 100 |  | 21.2 ± 1.4 | 62.6 ± 3.4 | 

Reference: publication PMC9479156 (Frontiers in Pharmacology, 2022)
